The record followed here is US7235584B2, “Non-psychotropic cannabinoids” (Pharmos Corporation, priority 2000, dated 2007).

The test deals with rat model of closed head injury. The test can be described thus: Closed head injury (head trauma) in rats: cerebral edema and Neurological Severity Score. Type of test: in vivo. The text has this:
Severe head injury is associated with high mortality and severe neurological impairment. Animals subjected to head trauma in a controlled fashion serve as models in which to test drugs of therapeutic potential. Test compounds can be evaluated both for improved clinical outcome and for reduction of edema induced by closed head injury. The ability of compounds to reduce the severity of neurological symptoms and to reduce brain edema is considered a measure of their potency in reducing brain damage.
The cerebroprotective effect of PRS-211 compounds was assessed in a model of head trauma (HT) in rats. […] The clinical status of the rats was evaluated 1, 24 and 48 hours after injury along with measuring the extent of cerebral edema. The neurological deficit, assessed by a set of criteria termed the Neurological Severity Score (NSS), is maximal at 1 hour after the initiation of head trauma. […]
The model was described in detail by Shapira et al., Crit. […] During the recovery period, the clinical status was evaluated by a set of criteria (NSS).
Trauma induced a significant decrease in specific gravity (SG) of brain tissue and increase in water content following head injury. […] Tissue pieces (20 mg each) were placed on top of the column and the SG calculated from the equilibrium position in the column, using a standard curve. […]

On to `CCCCCCC(C)(C)c1cc(O)c2c(c1)OC(C)(C)C1CC=C(Cn3ccnc3)CC21.Cl` (single isomer, unassigned; (+)) [211,095-000, (+)-(3S ,4S )-6,6-Dimethyl-(1,1-dimethylheptyl)-1-hydroxy-9-(imidazolomethyl)-6a,7,10,10a-tetrahydro-6H-dibenzo[b,d]pyran], for which, where the note is “given 30 min before, immediately after, or 1 and 2 hours after HT”, the “edema formation and BBB disruption” value was “significantly reduces edema formation and BBB disruption”. Further, the “edema and clinical outcome 24 hours after HT” value (one dose of 5 mg/kg given 1 hour after the impact) was “effectively reduced edema and improved the clinical outcome”.
